Experimental data reported in US7723075B2, “Methods of screening for TRPM5 modulators” (The Queens's Medical Center, priority 2003, dated 2010).

Tests used:
TRPM5 [1] = target: T1, TRPM5 (Homo sapiens, UniProt Q9NZQ8); assay: Combined patch-clamp and fura-2 recordings of TRPM5 currents after Ca2+ release, [Ca2+]i not buffered; format: cell-based
T1 construct: Human TRPM5 cDNA containing the complete ORF of the long splice version; expressed in transfected cells
T1 sequence (Q9NZQ8 1-1165): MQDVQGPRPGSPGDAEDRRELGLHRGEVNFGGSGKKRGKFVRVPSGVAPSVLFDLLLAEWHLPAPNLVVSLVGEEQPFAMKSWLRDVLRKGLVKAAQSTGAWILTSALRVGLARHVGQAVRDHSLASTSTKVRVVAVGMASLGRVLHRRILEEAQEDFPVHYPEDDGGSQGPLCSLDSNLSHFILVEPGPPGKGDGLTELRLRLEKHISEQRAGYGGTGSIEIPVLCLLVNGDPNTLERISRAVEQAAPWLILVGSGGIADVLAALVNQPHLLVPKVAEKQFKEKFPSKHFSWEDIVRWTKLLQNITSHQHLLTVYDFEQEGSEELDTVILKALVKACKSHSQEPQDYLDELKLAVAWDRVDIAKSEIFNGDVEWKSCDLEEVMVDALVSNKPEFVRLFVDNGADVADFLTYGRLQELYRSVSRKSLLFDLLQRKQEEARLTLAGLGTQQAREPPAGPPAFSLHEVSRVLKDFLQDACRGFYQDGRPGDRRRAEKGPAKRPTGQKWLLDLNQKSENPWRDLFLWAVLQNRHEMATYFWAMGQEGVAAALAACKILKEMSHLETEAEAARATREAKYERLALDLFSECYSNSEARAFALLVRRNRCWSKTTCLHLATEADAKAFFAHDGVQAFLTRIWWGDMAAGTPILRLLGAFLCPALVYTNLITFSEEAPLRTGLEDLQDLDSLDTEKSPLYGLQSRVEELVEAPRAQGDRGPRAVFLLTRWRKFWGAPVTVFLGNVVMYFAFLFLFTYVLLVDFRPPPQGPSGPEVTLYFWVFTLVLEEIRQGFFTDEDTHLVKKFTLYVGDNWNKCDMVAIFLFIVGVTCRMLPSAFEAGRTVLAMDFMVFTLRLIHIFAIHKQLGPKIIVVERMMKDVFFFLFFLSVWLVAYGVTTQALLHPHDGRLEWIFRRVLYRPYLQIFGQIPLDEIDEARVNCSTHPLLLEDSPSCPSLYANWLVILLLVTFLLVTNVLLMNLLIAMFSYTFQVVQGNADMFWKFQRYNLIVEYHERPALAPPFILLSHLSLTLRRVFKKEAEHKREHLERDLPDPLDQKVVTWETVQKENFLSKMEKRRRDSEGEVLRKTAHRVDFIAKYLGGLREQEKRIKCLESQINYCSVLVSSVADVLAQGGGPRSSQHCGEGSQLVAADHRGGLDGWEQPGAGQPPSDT
Text: (§1) Cells grown on glass coverslips were transferred to the recording chamber and kept in a standard modified Ringer's solution of the following composition (in mM): NaCl 140, KCl 2.8, CaC12 1, MgC12 2, glucose 10, Hepes.NaOH 10, pH 7.2, with osmolarity typically ranging from 298-308 mOsm. Intracellular pipette-filling solutions contained (in MM): K-glutamate 120, NaCl 8, MgC12 1, K-BAPTA 10, HEPES.CsOH, pH 7.2 adjusted with KOH. In order to adjust free [Ca^2+]i, to the desired concentration appropriate amounts of CaC12 were added as calculated with WebMaxC v2.1 (available through Stanford University). In the case of fura-2 measurements intracellular K-BAPTA was replaced by 200 μM fura-2. Fura-2 is a calcium indicator (Handbook of Fluorescent Probes and Research Chemicals, 9th ed. Molecular Probes). […]
(§2) The cytosolic calcium concentration was monitored at a rate of 5 Hz with a photomultiplier-based system using a monochromatic light source tuned to excite fura-2 fluorescence at 360 and 390 nm for 20 ms each (TILL Photonics, Munich, Germany). Emission was detected at 450-550 run with a photomultiplier, whose analog signals were sampled and processed by X-Chart software (HEKA, Lambrecht, Germany). Fluorescence ratios were translated into free intracellular calcium concentration based on calibration parameters derived from patch-clamp experiments with calibrated calcium concentrations. […]

[2] = system: endogenous TRPM5-like currents in INS-1 cells; assay: Whole-cell currents in INS-1 beta cells perfused with defined [Ca2+]i; format: cell-based, rat
Protocol: (§3) Patch-clamp experiments were performed in the tight-seal whole-cell configuration at 21-25° C. High-resolution current recordings were acquired by a computer-based patch-clamp amplifier system (EPC-9, HEKA, Lambrecht, Germany). Patch pipettes had resistances between 2-4 MS2 after filling with the standard intracellular solution. Immediately following establishment of the whole-cell configuration, voltage ramps of 50 ms duration spanning the voltage range of −100 to +100 mV were delivered from a holding potential of 0 mV at a rate of 0.5 Hz over a period of 300 to 600 seconds. All voltages were corrected for a liquid junction potential of 10 mV between external and internal solutions when using glutamate as intracellular anion. Currents were filtered at 2.9 kHz and digitized at […] intervals. Capacitive currents and series resistance were determined and corrected before each voltage ramp using the automatic capacitance compensation of the EPC-9. The low-resolution temporal development of membrane currents was assessed by extracting the current amplitude at −80 and +80 mV from individual ramp current records. Where applicable, statistical errors of averaged data are given as means±S.E.M. with n determinations and statistical significance was assessed by Student's t-test. For single channel measurements inside-out patches were pulled into a modified standard external solution that contained no Ca^2+ and had 1 mM Na-EDTA. To record single channels a ramp protocol of 4.5 s from −100 mV to +100 mV and digitized at […] was given with no wait time in between ramps. Ramps that had no channel activity during Ca^2+ application were used for leak correction and subtracted form all ramps acquired. Data collection was at 2.9 kHz filter setting and digitally filtered at 50 Hz for display purposes.
TRPM5 is found in another beta cell line, INS-1 (FIG. 5B). The INS-1 line was used to assess the electrophysiological features of TRPM5 in a native cellular context. Since the pancreatic beta-cell line INS-1 expressed TRPM5, the native TRPM5 currents in these cells was studied using the same experimental protocols that activated TRPM5 in the heterologous HEK-293 expression system (Examples 1-3). FIG. 5C illustrates that perfusing INS-1 cells with an intracellular solution that contained elevated levels of Ca^2+ (800 nM) induced a transient current, whose current-voltage relationship (FIG. 5D) was outwardly rectifying and closely resembled the current-voltage characteristics obtained for TRPM5 in the transfected HEK-293 cells. […]

TRPM5 single channels = target: T2, TRPM5 single channels (Homo sapiens, UniProt Q9NZQ8); assay: Single-channel recordings in inside-out patches from HEK-293 cells stably expressing TRPM5; format: biochemical; conditions: cytosolic side exposed to 300 nM Ca2+, n=5
T2 construct: Human TRPM5 cDNA containing the complete ORF of the long splice version; expressed in transfected cells
T2 sequence (Q9NZQ8 1-1165): T1 sequence (Q9NZQ8 1-1165)
Text: FIG. 4A depicts studies in which the inside-out patches were pulled from HEK-293 cells stably expressing TRPM5 channels. To record single channels a ramp protocol of 4.5 s from −100 mV to +100 mV was given with no wait time in between ramps. Ramps that had no channel activity during Ca^2+ application ere used for leak correction. Data were acquired at 2.9 kHz filter setting and digitally filtered at 50 Hz for display purposes. […] The last panel is an example 1 s after stop of application and removal of Ca^2+. This patch had at least 7 channels. […] Records are representative of all 5 patches recorded this way. […]
Patch-clamp experiments were performed in the tight-seal whole-cell configuration at 21-25° C. […] Capacitive currents and series resistance were determined and corrected before each voltage ramp using the automatic capacitance compensation of the EPC-9. The low-resolution temporal development of membrane currents was assessed by extracting the current amplitude at −80 and +80 mV from individual ramp current records. Where applicable, statistical errors of averaged data are given as means±S.E.M. with n determinations and statistical significance was assessed by Student's t-test. […]
The single-channel properties of TRPM5 were analyzed in cell-free excised membrane patches in the inside-out configuration of the patch-clamp technique. […]

TRPM4 = TRPM4 (Homo sapiens, UniProt Q8TD43); assay: Dose-dependence of TRPM4 currents evoked by intracellular [Ca2+]i; format: cell-based
Chain of TRPM4 (Q8TD43 whole entry): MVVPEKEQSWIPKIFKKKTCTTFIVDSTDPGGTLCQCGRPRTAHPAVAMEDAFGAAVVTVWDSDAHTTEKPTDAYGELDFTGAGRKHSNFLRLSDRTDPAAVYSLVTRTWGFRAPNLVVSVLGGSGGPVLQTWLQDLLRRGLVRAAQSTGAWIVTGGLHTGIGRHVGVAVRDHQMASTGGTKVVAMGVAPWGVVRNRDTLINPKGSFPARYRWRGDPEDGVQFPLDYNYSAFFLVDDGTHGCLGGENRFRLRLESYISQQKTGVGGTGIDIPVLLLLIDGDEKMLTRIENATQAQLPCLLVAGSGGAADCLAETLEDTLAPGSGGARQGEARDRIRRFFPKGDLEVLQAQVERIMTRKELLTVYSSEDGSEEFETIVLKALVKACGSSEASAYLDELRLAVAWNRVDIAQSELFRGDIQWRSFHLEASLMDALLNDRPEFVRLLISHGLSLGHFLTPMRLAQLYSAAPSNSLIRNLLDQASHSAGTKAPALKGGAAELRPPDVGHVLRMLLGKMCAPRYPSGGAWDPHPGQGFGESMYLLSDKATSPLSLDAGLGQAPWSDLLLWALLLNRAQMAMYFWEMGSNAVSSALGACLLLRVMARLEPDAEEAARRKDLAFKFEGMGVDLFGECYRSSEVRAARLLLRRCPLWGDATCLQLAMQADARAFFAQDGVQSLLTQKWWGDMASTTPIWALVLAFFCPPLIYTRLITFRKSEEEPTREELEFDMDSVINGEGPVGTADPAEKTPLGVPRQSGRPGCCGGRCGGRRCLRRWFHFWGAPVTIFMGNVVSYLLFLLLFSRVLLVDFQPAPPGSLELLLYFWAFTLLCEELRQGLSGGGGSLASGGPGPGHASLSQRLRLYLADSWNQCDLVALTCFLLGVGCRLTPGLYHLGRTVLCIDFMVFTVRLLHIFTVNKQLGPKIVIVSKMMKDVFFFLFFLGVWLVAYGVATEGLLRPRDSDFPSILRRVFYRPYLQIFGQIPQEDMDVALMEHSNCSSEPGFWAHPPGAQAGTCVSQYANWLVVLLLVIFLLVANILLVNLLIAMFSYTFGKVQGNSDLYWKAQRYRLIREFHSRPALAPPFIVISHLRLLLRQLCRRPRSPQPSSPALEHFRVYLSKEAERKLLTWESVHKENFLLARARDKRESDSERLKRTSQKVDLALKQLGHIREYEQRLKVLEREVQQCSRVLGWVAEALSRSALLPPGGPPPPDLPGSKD

TRPM5 [3] = target: T1, TRPM5; assay: Whole-cell patch-clamp of TRPM5 currents in HEK-293 cells stably expressing TRPM5, [Ca2+]i buffered in pipette; format: cell-based; conditions: for Hill coefficient, inhibition of TRPM5: fit to inhibitory phase
Text: Cells grown on glass coverslips were transferred to the recording chamber and kept in a standard modified Ringer's solution of the following composition (in mM): NaCl 140, KCl 2.8, CaC12 1, MgC12 2, glucose 10, Hepes.NaOH 10, pH 7.2, with osmolarity typically ranging from 298-308 mOsm. Intracellular pipette-filling solutions contained (in MM): K-glutamate 120, NaCl 8, MgC12 1, K-BAPTA 10, HEPES.CsOH, pH 7.2 adjusted with KOH. In order to adjust free [Ca^2+]i, to the desired concentration appropriate amounts of CaC12 were added as calculated with WebMaxC v2.1 (available through Stanford University). In the case of fura-2 measurements intracellular K-BAPTA was replaced by 200 μM fura-2. Fura-2 is a calcium indicator (Handbook of Fluorescent Probes and Research Chemicals, 9th ed. Molecular Probes). Solution changes were performed by pressure ejection from a wide-tipped pipette. Thrombin (NaCl-based buffer) was purchased from Sigma.
Cells expressing TRPM5 were prepared as in Example 1. The cells were perfused with an internal solution in which the free Ca^2+ concentration was buffered to 500 nM with an appropriate mixture of BAPTA and CaC12. […] The activation kinetics of TRPM5 currents under these experimental conditions is characterized by a half-time to peak of −3 s, with the peak current itself at −10 s. The current inactivates similarly rapidly to basal levels with a half-time of —13 s.
as §3

HEK-293 cells = assay: fura-2 measurement of [Ca2+]i in TRPM5-expressing HEK-293 cells; format: cell-based, human; conditions: thrombin 20 U/ml, n=5
Text: as §1, §2

In the case of O=C([O-])CN(CC(=O)[O-])c1ccccc1OCCOc1ccccc1N(CC(=O)[O-])CC(=O)[O-].[K+].[K+].[K+].[K+] [BAPTA], the “effect on TRPM5 activation by thrombin” value (TRPM5 [1]; 10 mM BAPTA in the pipette solution, n=6, data not shown) is reported as “consistently suppressed TRPM5 activation”.
In the case of [Ca+2] [[Ca^2+]i], the “activation of endogenous TRPM5-like currents” value ([2]; 100 nM [Ca2+]i, n=3) is reported as “neither 100 nM (n=3) nor 300 nM (n=3) activated any currents”, the “activation of endogenous TRPM5-like currents” value ([2]; 300 nM [Ca2+]i, n=3) is reported as “neither 100 nM (n=3) nor 300 nM (n=3) activated any currents” and the “activation of endogenous TRPM5-like currents” value ([2]; 500 nM [Ca2+]i, n=3) is reported as “a distinctive, transient TRPM5-like current was activated”. For the same compound, the “activation of endogenous TRPM5-like currents” value ([2]; 800 nM [Ca2+]i, n=8) was “a distinctive, transient TRPM5-like current was activated”, the “TRPM5 single-channel activity in inside-out patch” value (TRPM5 single channels) was “activity of multiple channels was observed” and the EC50 (TRPM4; data re-calculated by WebmaxC) was 885 nM. For the same compound, the “Hill coefficient, TRPM4 currents” value (TRPM4; data re-calculated by WebmaxC) was 3.6, the “inhibition of TRPM4 activity at high [Ca2+]i” value (TRPM4; levels up to 1.3 μM, Ref. 9 and data not shown) was “without signs of inhibition” and the “average peak amplitude of TRPM5 inward currents” value (TRPM5 [3]; at −80 mV, [Ca2+]i of 1 μM, n=5) was −440 pA. For the same compound, the “Hill coefficient, inhibition of TRPM5” value (TRPM5 [3]) was −6, the “Hill coefficient, inhibition of TRPM5” value (TRPM5 [3]; listed as [Ca2+]i) was 6 and the “Hill coefficient, activation of TRPM5” value (TRPM5 [3]; fit to rising phase) was 4. It also gave an EC50 (TRPM5 [3]; whole-cell, HEK-293 expressing TRPM5, n=5-20, read-out: EC50 for activation of TRPM5 currents (rising phase)) of 850 nM and an IC50 (TRPM5 [3]; whole-cell, HEK-293 expressing TRPM5, n=5-20, read-out: IC50 of the inhibitory phase of TRPM5 currents) of 1100 nM.
With Thrombin the “TRPM5 currents at +80 and −80 mV on thrombin stimulation” value (TRPM5 [1]; thrombin 20 U/ml, n=5) was “transient increase in inward and outward currents” and the “[Ca2+]i signal on thrombin stimulation” value (HEK-293 cells) was “large Ca^2+-release transient”.
